Experiment [1] has as its target FLT3-ITD (Homo sapiens (Human), UniProt P36888, INS600HVDFREYEYD). The experiment is described as follows: pFLT3 MSD assay, Ba/F3 FLT3-ITD. It counts as cell-based. Particulars: Ba/F3 FLT3-ITD cells, 2 hours, read-out: BaF3-FLT3-ITD pFlt3 IC50.
Experimental: In certain other embodiments, the compounds disclosed herein are tested in a FLT3 phosphorylation assay to determine their cellular potency against one or both of FLT3-ITD and FLT3 tyrosine kinase domain mutants. In certain embodiments, the FLT3 phosphorylation assay assesses the potency of compounds as FLT3 inhibitors by measuring the reduction in formation of phosphorylated FLT3 in the cells.
Gene constructs containing the human FLT3 sequences FLT3-ITD, FLT3-ITD-F691L, FLT3-ITD-D835V and FLT3-D835V were synthesized by reverse translation of the human protein sequences, with codons optimized for mammalian expression. Sequence of the internal tandem duplication (ITD) was based on the MV4-11 ITD sequence. […] Viruses were transduced into the IL-3-dependent, murine macrophage cell line, Ba/F3, and selected for puromycin resistance and IL-3 independence. All cell lines were cloned by limiting dilution and clones were used for all subsequent cell assays.
Briefly, cell lines were serum starved overnight in media containing 0.5% FBS. Cells were plated at 200,000 cells/well in 96-well round bottom plates in low serum, and 3-fold serial dilutions of test compounds were added for 2 hours at 37° C. […] After an overnight incubation at 4° C. shaking at 450 rpm, plates were washed with MSD wash buffer, and captured FLT3 was detected with biotinylated-anti-phosphotyrosine antibody 4G10 (Millipore) and SulfoTAG-streptavidin (MSD) for 1 hour at room temperature, and read on an MSD SECTOR Imager 6000. Percent remaining phospho-FLT3 in compound-treated cells was normalized to DMSO-treated cells, and IC50s were determined using Igor Pro software. All compounds are assayed in duplicate cell and MSD plates.
In experiment [2] the target is FLT3 kinase (Homo sapiens (Human), UniProt P36888). The experiment is described as follows: Competition binding assay (Kd), FLT3. Particulars: competition binding assay.
Experiment [3] concerns the target KIT kinase (Homo sapiens (Human), UniProt P10721). The experiment is described as follows: Competition binding assay (Kd), KIT. Particulars: competition binding assay. In short, it runs like this: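 Kinase, as T7 phage fusion or HEK-293-expressed DNA-tagged protein, competed off immobilised ligand beads by test compound (eleven-point threefold dilutions, from 100× DMSO stocks). Eluted kinase quantified by qPCR to derive Kd; DMSO used as control.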

FLT3 kinase, sequence (P36888 27-993): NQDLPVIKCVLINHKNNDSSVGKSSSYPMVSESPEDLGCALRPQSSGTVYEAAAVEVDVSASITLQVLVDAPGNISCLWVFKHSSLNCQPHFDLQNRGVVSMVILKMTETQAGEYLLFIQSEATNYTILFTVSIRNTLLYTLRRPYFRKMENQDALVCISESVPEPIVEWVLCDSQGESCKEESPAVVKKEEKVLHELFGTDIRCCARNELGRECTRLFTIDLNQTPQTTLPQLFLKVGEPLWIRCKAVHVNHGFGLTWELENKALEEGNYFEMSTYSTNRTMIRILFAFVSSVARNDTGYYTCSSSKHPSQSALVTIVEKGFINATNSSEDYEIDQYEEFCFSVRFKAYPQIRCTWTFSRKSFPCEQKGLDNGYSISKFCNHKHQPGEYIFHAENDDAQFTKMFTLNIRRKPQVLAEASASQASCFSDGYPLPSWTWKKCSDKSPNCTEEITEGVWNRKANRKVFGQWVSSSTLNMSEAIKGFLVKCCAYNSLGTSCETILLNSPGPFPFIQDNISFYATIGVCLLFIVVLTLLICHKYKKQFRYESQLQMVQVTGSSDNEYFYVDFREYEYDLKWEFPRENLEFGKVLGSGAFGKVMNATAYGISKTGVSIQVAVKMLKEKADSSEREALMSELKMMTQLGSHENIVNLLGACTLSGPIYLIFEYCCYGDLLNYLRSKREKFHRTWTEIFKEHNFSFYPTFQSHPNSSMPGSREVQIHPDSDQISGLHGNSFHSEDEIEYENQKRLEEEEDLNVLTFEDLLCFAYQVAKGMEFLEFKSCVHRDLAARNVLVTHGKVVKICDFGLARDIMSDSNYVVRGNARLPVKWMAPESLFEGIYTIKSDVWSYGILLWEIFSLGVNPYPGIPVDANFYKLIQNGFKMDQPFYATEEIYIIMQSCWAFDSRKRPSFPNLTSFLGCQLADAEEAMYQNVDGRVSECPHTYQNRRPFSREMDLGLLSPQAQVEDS
KIT kinase, sequence (P10721 26-976): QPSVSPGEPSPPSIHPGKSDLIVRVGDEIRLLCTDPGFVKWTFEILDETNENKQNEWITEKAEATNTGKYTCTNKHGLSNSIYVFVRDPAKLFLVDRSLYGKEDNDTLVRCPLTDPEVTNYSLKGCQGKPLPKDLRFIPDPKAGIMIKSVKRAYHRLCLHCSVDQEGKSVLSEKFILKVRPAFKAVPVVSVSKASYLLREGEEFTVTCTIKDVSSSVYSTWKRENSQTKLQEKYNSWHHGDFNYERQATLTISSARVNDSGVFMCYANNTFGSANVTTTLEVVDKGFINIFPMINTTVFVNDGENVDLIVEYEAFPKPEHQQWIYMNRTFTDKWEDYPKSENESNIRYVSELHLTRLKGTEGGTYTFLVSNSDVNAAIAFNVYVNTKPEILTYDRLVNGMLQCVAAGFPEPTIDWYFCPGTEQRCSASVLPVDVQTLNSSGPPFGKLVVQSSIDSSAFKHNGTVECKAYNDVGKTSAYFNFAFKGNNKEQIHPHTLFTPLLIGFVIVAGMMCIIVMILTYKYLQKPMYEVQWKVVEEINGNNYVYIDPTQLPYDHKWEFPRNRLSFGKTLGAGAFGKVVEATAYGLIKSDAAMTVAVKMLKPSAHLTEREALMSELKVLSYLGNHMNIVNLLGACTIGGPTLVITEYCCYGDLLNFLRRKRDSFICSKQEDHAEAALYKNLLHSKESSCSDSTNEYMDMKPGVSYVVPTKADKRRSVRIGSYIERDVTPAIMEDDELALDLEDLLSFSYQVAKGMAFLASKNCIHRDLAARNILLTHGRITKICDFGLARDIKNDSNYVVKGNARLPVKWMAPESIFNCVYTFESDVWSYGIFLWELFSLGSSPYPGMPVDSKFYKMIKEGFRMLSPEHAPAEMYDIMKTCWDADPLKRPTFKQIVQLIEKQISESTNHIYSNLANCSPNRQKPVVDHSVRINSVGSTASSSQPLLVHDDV
FLT3-ITD, sequence (P36888 other isoform, or with tags, fused parts or gaps limits assumed, stated change not applied): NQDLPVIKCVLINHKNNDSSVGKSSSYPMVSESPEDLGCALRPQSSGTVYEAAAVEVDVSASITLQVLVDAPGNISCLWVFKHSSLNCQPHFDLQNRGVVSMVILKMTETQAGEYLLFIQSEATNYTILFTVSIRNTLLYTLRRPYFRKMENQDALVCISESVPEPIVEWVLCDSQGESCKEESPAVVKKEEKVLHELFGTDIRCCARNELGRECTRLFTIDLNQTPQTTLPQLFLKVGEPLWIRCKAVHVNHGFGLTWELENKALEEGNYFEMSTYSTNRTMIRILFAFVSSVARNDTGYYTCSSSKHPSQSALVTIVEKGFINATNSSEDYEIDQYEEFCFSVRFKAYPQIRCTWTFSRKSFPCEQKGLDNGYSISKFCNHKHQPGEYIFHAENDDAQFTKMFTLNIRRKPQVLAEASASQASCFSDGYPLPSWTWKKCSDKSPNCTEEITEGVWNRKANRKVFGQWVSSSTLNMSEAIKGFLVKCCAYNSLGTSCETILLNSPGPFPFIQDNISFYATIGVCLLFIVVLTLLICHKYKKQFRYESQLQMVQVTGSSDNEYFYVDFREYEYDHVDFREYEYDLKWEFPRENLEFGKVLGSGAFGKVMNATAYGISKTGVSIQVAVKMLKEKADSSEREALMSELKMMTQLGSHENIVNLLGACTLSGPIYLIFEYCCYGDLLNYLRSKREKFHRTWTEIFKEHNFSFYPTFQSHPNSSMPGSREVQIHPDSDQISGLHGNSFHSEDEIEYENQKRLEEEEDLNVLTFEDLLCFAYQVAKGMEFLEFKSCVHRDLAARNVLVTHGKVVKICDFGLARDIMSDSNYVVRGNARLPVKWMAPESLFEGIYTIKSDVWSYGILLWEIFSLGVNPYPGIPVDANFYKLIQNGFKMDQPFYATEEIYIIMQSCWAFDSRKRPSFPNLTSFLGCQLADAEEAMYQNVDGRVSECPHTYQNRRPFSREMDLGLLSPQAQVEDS

Consider `O=C(Cc1ccc(-c2cnc3[nH]c(CO)cc3c2)cc1F)Nc1cc(C2(C(F)(F)F)CC2)on1` [Example 70, 2-(2-fluoro-4-(2-(hydroxymethyl)-1H-pyrrolo[2,3-b]pyridin-5-yl)phenyl)-N-(5-(1-(trifluoromethyl)cyclopropyl)isoxazol-3-yl)acetamide], for which the IC50 in experiment [1] was under 10 nM. The Kd in experiment [2] and in experiment [3] was under 5 nM throughout.
Turning to `COc1cc2ncc(-c3ccc(CC(=O)Nc4cc(C(C)(C)C)n[nH]4)c(F)c3)nc2cc1OC` [Example 153, N-(3-tert-butyl-1H-pyrazol-5-yl)-2-[4-(6,7-dimethoxyquinoxalin-2-yl)-2-fluoro-phenyl]acetamide], the concentration for half-maximal inhibition (IC50) in experiment [1] is under 10 nM. For the same compound, the dissociation constant (Kd) in experiment [2] and in experiment [3] was under 5 nM each time.
Take `CN1CC(NC(=O)c2cc3cc(-c4ccc(CC(=O)Nc5cc(C6(C(F)(F)F)CC6)on5)c(F)c4)cnc3[nH]2)C1` [Example 113, 5-[3-fluoro-4-[2-oxo-2-[[5-[1-(trifluoromethyl)cyclo-propyl]isoxazol-3-yl]amino]ethyl]phenyl]-N-(1-methylazetidin-3-yl)-1H-pyrrolo[2,3-b]pyridine-2-carboxamide]: the IC50 in experiment [1] was under 10 nM. Further, the Kd in experiment [2] and in experiment [3] was under 5 nM each time.
Regarding `CC(C)(C)c1cc(NC(=O)Cc2ccc(-c3cnc4[nH]c(C(=O)NCCS(C)(=O)=O)cc4c3)cc2)no1` [Example 68, 5-(4-(2-((5-(tert-butyl)isoxazol-3-yl)amino)-2-oxoethyl)phenyl)-N-(2-(methylsulfonyl)ethyl)-1H-pyrrolo[2,3-b]pyridine-2-carboxamide], the concentration for half-maximal inhibition (IC50) in experiment [1] is under 10 nM. Also, the Kd in experiment [2] and in experiment [3] was under 5 nM in each case.
Turning to `COc1n[nH]c2ncc(-c3ccc(CC(=O)Nc4cc(C(C)(C)C(F)(F)F)on4)c(F)c3)cc12` [Example 63, 2-(2-fluoro-4-(3-methoxy-1H-pyrazolo[3,4-b]pyridin-5-yl)phenyl)-N-(5-(1,1,1-trifluoro-2-methylpropan-2-yl)isoxazol-3-yl)acetamide], in experiment [1], the IC50 was under 10 nM. For the same compound, the Kd in experiment [2] and in experiment [3] was under 5 nM throughout.
For the compound `COc1cc2ncc(-c3ccc(CC(=O)Nc4cc(C(C)(C)C)nn4C)c(F)c3)nc2cc1OC` [Example 139, N-(5-tert-butyl-2-methyl-pyrazol-3-yl)-2-[4-(6,7-dimethoxyquinoxalin-2-yl)-2-fluoro-phenyl]acetamide], the IC50 in experiment [1] is under 10 nM. Also, the Kd in experiment [2] and in experiment [3] was under 5 nM in each case.
Turning to `COc1cc2nc(-c3ccc(CC(=O)Nc4cc(C(C)(C)C(F)(F)F)on4)c(F)c3)cnc2cc1OCCO` [Example 165, 2-[2-fluoro-4-[6-(2-hydroxyethoxy)-7-methoxy-quinoxalin-2-yl]phenyl]-N-[5-(2,2,2-trifluoro-1,1-dimethyl-ethyl)isoxazol-3-yl]acetamide], the IC50 in experiment [1] is under 10 nM. For the same compound, the dissociation constant (Kd) in experiment [2] and in experiment [3] was under 5 nM throughout.
Take `COc1cc2cc(-c3ccc(CC(=O)Nc4cc(C5(C(F)(F)F)CC5)on4)c(F)c3)cnc2cc1OC` [Example 128, 2-[4-(6,7-dimethoxy-3-quinolyl)-2-fluoro-phenyl]-N-[5-[1-(trifluoro-methyl)cyclopropyl]isoxazol-3-yl]acetamide]: the half-maximal inhibitory concentration (IC50) in experiment [1] is under 10 nM. Besides, the equilibrium dissociation constant (Kd) in experiment [2] and in experiment [3] was under 5 nM each time.
For `CCN1CC(Oc2cc3ncc(-c4ccc(CC(=O)Nc5cc(C(C)(C)C(F)(F)F)on5)c(F)c4)nc3cc2OC)C1` [Example 149, 2-[4-[6-(1-ethylazetidin-3-yl)oxy-7-methoxy-quinoxalin-2-yl]-2-fluoro-phenyl]-N-[5-(2,2,2-trifluoro-1,1-dimethyl-ethyl)isoxazol-3-yl]acetamide], the IC50 in experiment [1] was under 10 nM. In addition, the Kd in experiment [2] and in experiment [3] was under 5 nM in each case.

Values taken from US9725465B2, “Biaryl acetamide compounds and methods of use thereof” (Ambit Biosciences Corporation, priority 2013, dated 2017).
